Measured values: ChEMBL document CHEMBL4602676, “Discovery and Development of 3-(6-Chloropyridine-3-yloxymethyl)-2-azabicyclo[3.1.0]hexane Hydrochloride (SUVN-911): A Novel, Potent, Selective, and Orally Active Neuronal Nicotinic Acetylcholine α4β2 Receptor Antagonist for the Treatment of Depression” (J Med Chem, 2020)

Experiments:
[1] = Tmax in Beagle dog at 3 mg/kg, po by LC-MS/MS analysis; assay type: ADME, organism-based, Canis lupus familiaris; details: in vivo
[2] = biological target: T1, Solute carrier family 22 member 2 (Homo sapiens, UniProt O15244); assay: Inhibition of OCT2 (unknown origin)
T1 sequence (O15244 whole entry): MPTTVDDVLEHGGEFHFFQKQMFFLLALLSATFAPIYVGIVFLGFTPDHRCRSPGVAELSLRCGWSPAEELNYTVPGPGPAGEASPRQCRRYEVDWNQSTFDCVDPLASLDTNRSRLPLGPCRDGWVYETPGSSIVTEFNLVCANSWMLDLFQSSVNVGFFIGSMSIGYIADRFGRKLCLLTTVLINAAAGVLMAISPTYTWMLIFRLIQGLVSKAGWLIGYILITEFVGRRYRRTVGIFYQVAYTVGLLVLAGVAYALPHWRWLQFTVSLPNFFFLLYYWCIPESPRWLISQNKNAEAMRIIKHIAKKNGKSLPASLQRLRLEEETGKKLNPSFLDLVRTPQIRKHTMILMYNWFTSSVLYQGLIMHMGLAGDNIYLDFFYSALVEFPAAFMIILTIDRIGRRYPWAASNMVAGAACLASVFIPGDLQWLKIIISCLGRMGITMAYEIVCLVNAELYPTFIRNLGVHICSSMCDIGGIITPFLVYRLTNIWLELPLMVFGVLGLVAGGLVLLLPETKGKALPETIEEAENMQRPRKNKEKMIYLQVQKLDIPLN

[3] = Toxicity in telemetered Beagle dog assessed as change in body weight up to 25 mg/kg, po; assay type: organism-based, Canis lupus familiaris; details: in vivo
[4] = biological target: T2, Solute carrier family 22 member 6 (Homo sapiens, UniProt Q4U2R8); assay: Inhibition of OAT1 (unknown origin)
T2 sequence (Q4U2R8 whole entry): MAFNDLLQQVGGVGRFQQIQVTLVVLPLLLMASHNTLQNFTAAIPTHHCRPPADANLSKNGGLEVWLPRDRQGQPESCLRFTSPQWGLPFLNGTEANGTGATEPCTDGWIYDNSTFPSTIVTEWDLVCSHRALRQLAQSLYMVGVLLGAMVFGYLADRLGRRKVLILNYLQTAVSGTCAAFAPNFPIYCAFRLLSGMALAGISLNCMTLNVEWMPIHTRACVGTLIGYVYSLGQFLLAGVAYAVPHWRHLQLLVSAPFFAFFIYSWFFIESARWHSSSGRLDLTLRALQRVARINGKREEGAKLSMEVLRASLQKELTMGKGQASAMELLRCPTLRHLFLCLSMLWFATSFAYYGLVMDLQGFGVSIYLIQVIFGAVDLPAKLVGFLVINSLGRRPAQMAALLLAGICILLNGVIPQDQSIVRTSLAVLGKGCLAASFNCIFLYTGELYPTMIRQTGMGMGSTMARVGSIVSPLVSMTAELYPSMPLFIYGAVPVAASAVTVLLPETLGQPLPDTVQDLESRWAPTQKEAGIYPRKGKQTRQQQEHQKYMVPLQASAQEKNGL

[5] = Toxicity in telemetered Beagle dog assessed as change in heart rate up to 25 mg/kg, po; assay type: organism-based, Canis lupus familiaris; details: in vivo
[6] = biological target: T3, Solute carrier family 22 member 1 (Homo sapiens, UniProt O15245); assay: Inhibition of OCT1 (unknown origin)
T3 sequence (O15245 whole entry): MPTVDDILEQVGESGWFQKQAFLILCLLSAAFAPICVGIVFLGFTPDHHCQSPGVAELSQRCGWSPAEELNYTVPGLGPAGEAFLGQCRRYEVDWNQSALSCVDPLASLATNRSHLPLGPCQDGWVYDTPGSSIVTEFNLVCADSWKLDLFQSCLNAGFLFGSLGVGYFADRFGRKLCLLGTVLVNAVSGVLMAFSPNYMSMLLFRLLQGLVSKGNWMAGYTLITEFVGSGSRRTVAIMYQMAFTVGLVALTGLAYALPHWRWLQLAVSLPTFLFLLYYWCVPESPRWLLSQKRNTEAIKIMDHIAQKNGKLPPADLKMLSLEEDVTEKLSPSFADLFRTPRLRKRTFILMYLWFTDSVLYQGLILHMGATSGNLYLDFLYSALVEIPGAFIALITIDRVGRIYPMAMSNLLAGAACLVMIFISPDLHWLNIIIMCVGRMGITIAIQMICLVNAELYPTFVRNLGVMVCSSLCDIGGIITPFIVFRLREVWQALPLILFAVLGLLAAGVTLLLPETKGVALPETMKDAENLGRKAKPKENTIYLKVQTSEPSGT

[7] = biological target: Neuronal acetylcholine receptor; alpha4/beta2 (Rattus norvegicus, UniProt P09483+P12390); assay: In vivo receptor occupancy at alpha4beta2 nAChR in Wistar rat assessed as plasma concentration pretreated for 15 mins followed by non radiolabelled ZW-104 tracer treatment and measured after 45 mins by LC-MS/MS analysis; assay type: functional, organism-based
[8] = biological target: T4, Cytochrome P450 1A2 (Homo sapiens, UniProt P05177); assay: Induction of CYP1A2 (unknown origin); assay type: ADME
T4 sequence (P05177 whole entry): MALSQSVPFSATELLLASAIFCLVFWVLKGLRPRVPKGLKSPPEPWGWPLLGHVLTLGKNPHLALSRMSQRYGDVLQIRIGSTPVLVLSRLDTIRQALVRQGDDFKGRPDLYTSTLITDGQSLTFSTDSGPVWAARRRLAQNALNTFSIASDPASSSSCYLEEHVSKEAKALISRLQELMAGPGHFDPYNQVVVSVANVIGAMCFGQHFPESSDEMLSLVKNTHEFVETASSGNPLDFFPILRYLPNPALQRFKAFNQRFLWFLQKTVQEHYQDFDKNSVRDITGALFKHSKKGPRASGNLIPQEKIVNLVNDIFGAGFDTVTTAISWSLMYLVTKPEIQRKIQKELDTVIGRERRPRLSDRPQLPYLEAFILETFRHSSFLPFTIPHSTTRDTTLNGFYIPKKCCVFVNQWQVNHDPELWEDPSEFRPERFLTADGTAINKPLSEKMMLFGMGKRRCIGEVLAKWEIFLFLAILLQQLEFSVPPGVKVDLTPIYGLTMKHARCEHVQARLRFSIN

[9] = Toxicity in telemetered Beagle dog assessed as change in body temperature up to 25 mg/kg, po; assay type: organism-based, Canis lupus familiaris; details: in vivo

Sequence of Neuronal acetylcholine receptor; alpha4/beta2 (P09483 whole entry): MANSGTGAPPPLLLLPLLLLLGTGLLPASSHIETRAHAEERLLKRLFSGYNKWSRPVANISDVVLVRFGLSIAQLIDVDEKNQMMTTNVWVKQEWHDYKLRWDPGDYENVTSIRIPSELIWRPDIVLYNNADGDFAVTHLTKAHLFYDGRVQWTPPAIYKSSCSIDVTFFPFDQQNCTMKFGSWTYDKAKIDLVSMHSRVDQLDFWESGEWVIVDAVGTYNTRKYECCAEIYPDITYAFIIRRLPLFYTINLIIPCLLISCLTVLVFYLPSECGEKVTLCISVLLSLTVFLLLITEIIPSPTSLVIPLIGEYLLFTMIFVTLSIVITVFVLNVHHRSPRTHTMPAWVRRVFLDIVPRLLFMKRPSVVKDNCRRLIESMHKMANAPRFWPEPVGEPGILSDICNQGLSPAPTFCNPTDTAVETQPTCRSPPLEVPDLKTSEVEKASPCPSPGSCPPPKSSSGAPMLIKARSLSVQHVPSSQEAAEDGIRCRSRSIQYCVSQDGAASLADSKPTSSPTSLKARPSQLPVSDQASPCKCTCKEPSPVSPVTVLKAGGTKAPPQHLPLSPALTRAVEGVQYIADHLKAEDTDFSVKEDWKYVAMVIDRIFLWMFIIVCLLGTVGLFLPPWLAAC
Sequence of Neuronal acetylcholine receptor; alpha4/beta2 (P12390 whole entry): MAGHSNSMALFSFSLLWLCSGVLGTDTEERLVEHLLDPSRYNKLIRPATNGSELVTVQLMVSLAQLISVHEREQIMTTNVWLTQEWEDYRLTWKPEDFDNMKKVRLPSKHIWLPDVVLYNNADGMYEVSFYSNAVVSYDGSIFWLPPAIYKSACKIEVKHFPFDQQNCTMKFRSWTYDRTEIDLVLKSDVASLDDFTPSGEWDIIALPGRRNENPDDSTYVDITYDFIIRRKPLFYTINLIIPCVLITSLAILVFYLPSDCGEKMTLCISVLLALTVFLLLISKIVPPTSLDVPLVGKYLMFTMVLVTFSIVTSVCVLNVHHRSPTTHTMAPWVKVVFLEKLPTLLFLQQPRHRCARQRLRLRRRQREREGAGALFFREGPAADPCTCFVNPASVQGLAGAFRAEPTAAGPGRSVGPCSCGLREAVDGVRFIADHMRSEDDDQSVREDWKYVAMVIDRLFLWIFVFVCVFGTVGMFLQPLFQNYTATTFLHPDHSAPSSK

SMILES: Cl.Clc1ccc(OC[C@@H]2C[C@H]3C[C@H]3N2)cn1
- Tmax [1]: 18 min
- inhibition (INH) [2]: Not Active
- Activity [3]: Non-Toxic
- inhibition (INH) [4]: Not Active
- Activity [5]: Non-Toxic
- inhibition (INH) [6]: Not Active
- EC50 [7]: 259 µM
- Activity [8]: Not Active
- Activity [9]: Non-Toxic
